Measured values: patent publication US8802597B2, “Herbicidal pyrimidines” (E I du Pont de Nemours and Company, priority 2003, dated 2014)

Experiments:
Type in all cases: in vivo
[1] = system: Italian ryegrass (Lolium multiflorum); experiment: Test G pre/postemergence
Text: (§1) Seeds or nutlets of plant species selected from bermudagrass (Cynodon dactylon), Surinam grass (Brachiaria decumbens), large crabgrass (Digitaria sanguinalis), green foxtail (Setaria viridis), goosegrass (Eleusine indica), johnsongrass (Sorghum halepense), kochia (Kochia scoparia), pitted morningglory (Ipomoea lacunosa), purple nutsedge (Cyperus rotundus), common ragweed (Ambrosia elatior), black mustard (Brassica nigra), guineagrass (Panicum maximum), dallisgrass (Paspalum dilatatum), barnyardgrass (Echinochloa crus-galli), southern sandbur (Cenchrus echinatus), common sowthistle (Sonchus oleraceous), prickly sida (Sida spinosa), Italian ryegrass (Lolium multiflorum), common purslane (Portulaca oleracea), broadleaf signalgrass (Brachiaria platyphylla), common groundsel (Senecio vulgaris), common chickweed (Stellaria media), tropical spiderwort (Commelina benghalensis), annual bluegrass (Poa annua), downy bromegrass (Bromus tectorum), itchgrass (Rottboellia cochinchinensis), quackgrass (Elytrigia repens), Canada horseweed (Conyza canadensis), field bindweed (Convolvulus arvensis), spanishneedles (Bidens bipinnata), common mallow (Malva sylvestris), and Russian thistle (Salsola kali) were planted and treated preemergence with test chemicals formulated in a non-phytotoxic solvent mixture which included a surfactant.
(§2) At the same time, plants selected from these weed species were treated with postemergence applications of some of the test chemicals formulated in the same manner. Plants ranged in height from 2 to 18 cm (1- to 4-leaf stage) for postemergence treatments. Treated plants and controls were maintained in a greenhouse for 12 to 21 days, after which time all species were compared to controls and visually evaluated.
(§3) Plant response ratings, summarized in Table G, are based on a scale of 0 to 100 where 0 is no effect and 100 is complete control. A dash (-) response means no test result.

[2] = system: downy bromegrass (Bromus tectorum); experiment: Test G pre/postemergence
Text: as §1, §2, §3

[3] = system: johnsongrass (Sorghum halepense); experiment: Test G pre/postemergence
Text: as §1, §2, §3

[4] = system: tropical spiderwort (Commelina benghalensis); experiment: Test G pre/postemergence
Text: as §1, §2, §3

[5] = system: Russian thistle (Salsola kali); experiment: Test D pre/postemergence; details: scale 0 to 100 (100 = complete control)
In short: (§4)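 Pre: seeds sown, then treated. Post: plants at 1- to 4-leaf stage (2 to 18 cm) sprayed at the same time. Chemicals formulated in a non-phytotoxic solvent mixture including surfactant. After 15 to 25 days under controlled growth conditions, response rated visually from 0 (no effect) to 100 (complete control).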

[6] = system: catchweed bedstraw (galium; Galium aparine); experiment: Test D pre/postemergence; details: scale 0 to 100 (100 = complete control)
In short: as §4

[7] = system: common chickweed (Stellaria media); experiment: Test D pre/postemergence; details: scale 0 to 100 (100 = complete control)
In short: as §4

[8] = system: kochia (Kochia scoparia); experiment: Test D pre/postemergence; details: scale 0 to 100 (100 = complete control)
In short: as §4

[9] = system: lambsquarters (Chenopodium album); experiment: Test D pre/postemergence; details: scale 0 to 100 (100 = complete control)
In short: as §4

[10] = system: pigweed (Amaranthus retroflexus); experiment: Test D pre/postemergence; details: scale 0 to 100 (100 = complete control)
In short: as §4

[11] = system: wheat (Triticum aestivum); experiment: Test D pre/postemergence; details: scale 0 to 100 (100 = complete control)
In short: as §4

[12] = system: wild buckwheat (Polygonum convolvulus); experiment: Test D pre/postemergence; details: scale 0 to 100 (100 = complete control)
In short: as §4

[13] = system: wild mustard (Sinapis arvensis); experiment: Test D pre/postemergence; details: scale 0 to 100 (100 = complete control)
In short: as §4

[14] = Postemergence, 250 g ai/ha, scale 0 to 100
[15] = Postemergence, 16 g ai/ha, scale 0 to 100
[16] = Postemergence, 31 g ai/ha, scale 0 to 100
[17] = Postemergence, 62 g ai/ha, scale 0 to 100
[18] = Postemergence, 125 g ai/ha, scale 0 to 100
[19] = Preemergence, 16 g ai/ha, scale 0-100
[20] = Preemergence, 31 g ai/ha, scale 0-100
[21] = Preemergence, 62 g ai/ha, scale 0-100
[22] = Preemergence, 125 g ai/ha, scale 0-100
[23] = Preemergence, 250 g ai/ha, scale 0-100

For `Nc1nc(C2CC2)nc(C(=O)[O-])c1Cl.[Na+]` [Compound 77, 6-amino-5-chloro-2-cyclopropyl-4-pyrimidinecarboxylic acid monosodium salt], the “Plant response rating, Ryegrass, Italian” value [1, 14] was 40, the “Plant response rating, Ryegrass, Italian” value [1, 15] was 0 and the “Plant response rating, Ryegrass, Italian” value [1, 16] was 20. For the same compound, the “Plant response rating, Ryegrass, Italian” value [1, 17] was 30, the “Plant response rating, Ryegrass, Italian” value [1, 18] was 30 and the “Plant response rating, Ryegrass, Italian” value [1, 19] was 0. The “Plant response rating, Ryegrass, Italian” value [1, 20] was 0, the “Plant response rating, Ryegrass, Italian” value [1, 21] was 0 and the “Plant response rating, Ryegrass, Italian” value [1, 22] was 40. The “Plant response rating, Ryegrass, Italian” value [1, 23] was 75, the “Plant response rating, Bromegrass, Downy” value [2, 14] was 75 and the “Plant response rating, Bromegrass, Downy” value [2, 15] was 0. The “Plant response rating, Bromegrass, Downy” value [2, 16] was 20, the “Plant response rating, Bromegrass, Downy” value [2, 17] was 35 and the “Plant response rating, Bromegrass, Downy” value [2, 18] was 65. For the same compound, the “Plant response rating, Bromegrass, Downy” value [2, 19] was 0, the “Plant response rating, Bromegrass, Downy” value [2, 20] was 0 and the “Plant response rating, Bromegrass, Downy” value [2, 21] was 0. The “Plant response rating, Bromegrass, Downy” value [2, 22] was 10, the “Plant response rating, Bromegrass, Downy” value [2, 23] was 75 and the “Plant response rating, Johnsongrass” value [3, 14] was 85. For the same compound, the “Plant response rating, Johnsongrass” value [3, 15] was 20, the “Plant response rating, Johnsongrass” value [3, 16] was 65 and the “Plant response rating, Johnsongrass” value [3, 17] was 70. The “Plant response rating, Johnsongrass” value [3, 18] was 85, the “Plant response rating, Johnsongrass” value [3, 19] was 10 and the “Plant response rating, Johnsongrass” value [3, 20] was 65. For the same compound, the “Plant response rating, Johnsongrass” value [3, 21] was 75, the “Plant response rating, Johnsongrass” value [3, 22] was 85 and the “Plant response rating, Johnsongrass” value [3, 23] was 95. The “Plant response rating, Spiderwort” value [4, 14] was 100, the “Plant response rating, Spiderwort” value [4, 15] was 10 and the “Plant response rating, Spiderwort” value [4, 16] was 50. The “Plant response rating, Spiderwort” value [4, 17] was 75, the “Plant response rating, Spiderwort” value [4, 18] was 90 and the “Plant response rating, Spiderwort” value [4, 19] was 60. For the same compound, the “Plant response rating, Spiderwort” value [4, 20] was 85, the “Plant response rating, Spiderwort” value [4, 21] was 95 and the “Plant response rating, Spiderwort” value [4, 22] was 95. The “Plant response rating, Spiderwort” value [4, 23] was 100.
For `CCOC(=O)C(OC(C)=O)c1nc(C2CC2)nc(N)c1Br` (stereo not drawn) [Compound 47], the “Plant response rating, Russian Thistle” value ([5]; Postemergence, 31 g ai/ha) was 45, the “Plant response rating, Russian Thistle” value ([5]; Postemergence, 62 g ai/ha) was 55 and the “Plant response rating, Russian Thistle” value ([5]; Postemergence, 125 g ai/ha) was 65. For the same compound, the “Plant response rating, Russian Thistle” value ([5]; Postemergence, 250 g ai/ha) was 70, the “Plant response rating, Galium” value ([6]; Postemergence, 31 g ai/ha) was 65 and the “Plant response rating, Galium” value ([6]; Postemergence, 62 g ai/ha) was 75. For the same compound, the “Plant response rating, Galium” value ([6]; Postemergence, 125 g ai/ha) was 80, the “Plant response rating, Galium” value ([6]; Postemergence, 250 g ai/ha) was 98 and the “Plant response rating, Chickweed” value ([7]; Postemergence, 31 g ai/ha) was 35. For the same compound, the “Plant response rating, Chickweed” value ([7]; Postemergence, 62 g ai/ha) was 60, the “Plant response rating, Chickweed” value ([7]; Postemergence, 125 g ai/ha) was 65 and the “Plant response rating, Chickweed” value ([7]; Postemergence, 250 g ai/ha) was 70. The “Plant response rating, Kochia” value ([8]; Postemergence, 31 g ai/ha) was 45, the “Plant response rating, Kochia” value ([8]; Postemergence, 62 g ai/ha) was 50 and the “Plant response rating, Kochia” value ([8]; Postemergence, 125 g ai/ha) was 65. The “Plant response rating, Kochia” value ([8]; Postemergence, 250 g ai/ha) was 75, the “Plant response rating, Lambsquarters” value ([9]; Postemergence, 31 g ai/ha) was 35 and the “Plant response rating, Lambsquarters” value ([9]; Postemergence, 62 g ai/ha) was 35. The “Plant response rating, Lambsquarters” value ([9]; Postemergence, 125 g ai/ha) was 40, the “Plant response rating, Lambsquarters” value ([9]; Postemergence, 250 g ai/ha) was 45 and the “Plant response rating, Pigweed” value ([10]; Postemergence, 31 g ai/ha) was 35. For the same compound, the “Plant response rating, Pigweed” value ([10]; Postemergence, 62 g ai/ha) was 50, the “Plant response rating, Pigweed” value ([10]; Postemergence, 125 g ai/ha) was 55 and the “Plant response rating, Pigweed” value ([10]; Postemergence, 250 g ai/ha) was 65. For the same compound, the “Plant response rating, Wheat” value ([11]; Postemergence, 31 g ai/ha) was 30, the “Plant response rating, Wheat” value ([11]; Postemergence, 62 g ai/ha) was 35 and the “Plant response rating, Wheat” value ([11]; Postemergence, 125 g ai/ha) was 35. For the same compound, the “Plant response rating, Wheat” value ([11]; Postemergence, 250 g ai/ha) was 45, the “Plant response rating, Buckwheat, Wild” value ([12]; Postemergence, 31 g ai/ha) was 60 and the “Plant response rating, Buckwheat, Wild” value ([12]; Postemergence, 62 g ai/ha) was 65. The “Plant response rating, Buckwheat, Wild” value ([12]; Postemergence, 125 g ai/ha) was 65, the “Plant response rating, Buckwheat, Wild” value ([12]; Postemergence, 250 g ai/ha) was 70 and the “Plant response rating, Mustard, Wild” value ([13]; Postemergence, 31 g ai/ha) was 55. The “Plant response rating, Mustard, Wild” value ([13]; Postemergence, 62 g ai/ha) was 60, the “Plant response rating, Mustard, Wild” value ([13]; Postemergence, 125 g ai/ha) was 65 and the “Plant response rating, Mustard, Wild” value ([13]; Postemergence, 250 g ai/ha) was 70.
With `Nc1nc(C2CC2)nc(C=O)c1Br` [Compound 26] the “Plant response rating, Russian Thistle” value ([5]; Postemergence, 125 g ai/ha) was 40, the “Plant response rating, Russian Thistle” value ([5]; Postemergence, 250 g ai/ha) was 40 and the “Plant response rating, Russian Thistle” value ([5]; Preemergence, 250 g ai/ha) was 100. For the same compound, the “Plant response rating, Galium” value ([6]; Postemergence, 125 g ai/ha) was 70, the “Plant response rating, Galium” value ([6]; Postemergence, 250 g ai/ha) was 85 and the “Plant response rating, Galium” value ([6]; Preemergence, 125 g ai/ha) was 85. The “Plant response rating, Galium” value ([6]; Preemergence, 250 g ai/ha) was 100, the “Plant response rating, Chickweed” value ([7]; Postemergence, 125 g ai/ha) was 45 and the “Plant response rating, Chickweed” value ([7]; Postemergence, 250 g ai/ha) was 55. The “Plant response rating, Chickweed” value ([7]; Preemergence, 125 g ai/ha) was 60, the “Plant response rating, Chickweed” value ([7]; Preemergence, 250 g ai/ha) was 65 and the “Plant response rating, Kochia” value ([8]; Postemergence, 125 g ai/ha) was 35. For the same compound, the “Plant response rating, Kochia” value ([8]; Postemergence, 250 g ai/ha) was 55, the “Plant response rating, Kochia” value ([8]; Preemergence, 125 g ai/ha) was 55 and the “Plant response rating, Kochia” value ([8]; Preemergence, 250 g ai/ha) was 75. The “Plant response rating, Lambsquarters” value ([9]; Postemergence, 125 g ai/ha) was 40, the “Plant response rating, Lambsquarters” value ([9]; Postemergence, 250 g ai/ha) was 50 and the “Plant response rating, Lambsquarters” value ([9]; Preemergence, 125 g ai/ha) was 60. For the same compound, the “Plant response rating, Lambsquarters” value ([9]; Preemergence, 250 g ai/ha) was 65, the “Plant response rating, Pigweed” value ([10]; Postemergence, 125 g ai/ha) was 60 and the “Plant response rating, Pigweed” value ([10]; Postemergence, 250 g ai/ha) was 70. For the same compound, the “Plant response rating, Pigweed” value ([10]; Preemergence, 125 g ai/ha) was 65, the “Plant response rating, Pigweed” value ([10]; Preemergence, 250 g ai/ha) was 100 and the “Plant response rating, Wheat” value ([11]; Postemergence, 125 g ai/ha) was 45. For the same compound, the “Plant response rating, Wheat” value ([11]; Postemergence, 250 g ai/ha) was 20, the “Plant response rating, Wheat” value ([11]; Preemergence, 125 g ai/ha) was 25 and the “Plant response rating, Wheat” value ([11]; Preemergence, 250 g ai/ha) was 35. For the same compound, the “Plant response rating, Buckwheat, Wild” value ([12]; Postemergence, 125 g ai/ha) was 35, the “Plant response rating, Buckwheat, Wild” value ([12]; Postemergence, 250 g ai/ha) was 55 and the “Plant response rating, Buckwheat, Wild” value ([12]; Preemergence, 125 g ai/ha) was 65. The “Plant response rating, Buckwheat, Wild” value ([12]; Preemergence, 250 g ai/ha) was 95, the “Plant response rating, Mustard, Wild” value ([13]; Postemergence, 125 g ai/ha) was 60 and the “Plant response rating, Mustard, Wild” value ([13]; Postemergence, 250 g ai/ha) was 75. The “Plant response rating, Mustard, Wild” value ([13]; Preemergence, 125 g ai/ha) was 65 and the “Plant response rating, Mustard, Wild” value ([13]; Preemergence, 250 g ai/ha) was 65.
